Among the data in patent US12318452B2, “Degraders of WEE1 kinase” (DANA-FARBER CANCER INSTITUTE, INC., priority 2018, dated 2025) are Wee1 degradation and percent Wee1 degradation values, retold here.

For one assay, the target named is Wee1 (Homo sapiens, UniProt P30291). Kind of assay: Cellular degradation of Wee1 by immunoblot, 6-hour treatment of MOLT4 cells. The assay is classed as cell-based. The arrangement: endogenous in cells; host or cells: MOLT4 (wild type; CRBN-/- as control). The following applies: MOLT4 cells, immunoblot. On the procedure: General Protocol: HT-29, MOLT4 wild type (WT) or CRBN^-/- cells were plated in a 6 well plate and treated for 6 hours with the indicated concentrations of the inventive compounds and control. HT-29 cells were cultured in McCoy's Media supplemented with 10% FBS and 1% Penicillin/Streptomycin. MOLT4 WT and CRBN^-/- cells were cultured in Roswell Park Memorial Institute (RPMI) medium supplemented with 10% FBS and 1% Penicillin/Streptomycin. Mycoplasma testing was performed every month and all lines were negative. Immunoblotting: Cells were washed with phosphate-buffered saline (PBS) and then lysed using radioimmunoprecipitation assay (RIPA) buffer supplemented with protease and phosphatase inhibitor cocktail (Roche) on ice for 15 minutes. The lysates were centrifuged at 14,000 rpm for 15 minutes at 4° C. and protein was quantified by bicinchoninic acid (BCA) assay (PierceTM). Primary antibodies used include: Wee1 ([…]) (Cell Signaling Technology®, 13084S), polo-like kinase 1 (PLK1) (Thermo Fisher Scientific, 37-7000), phosphor-cdc2 (Y15) (10A11) (Cell Signaling Technology®, […]), phospho-histone H3 ([…]) (Cell Signaling Technology®, […]), Ikaros ([…]) (Cell Signaling Technology®, 14859S), Aiolos ([…]) (Cell Signaling Technology®, 15103), casein kinase 1 alpha (Abcam®, 108296), β-actin (Cell Signaling Technology®, 8H10D10). FIG. 2A is an immunoblot showing that compound 13 degraded Wee1 after a 6-hour treatment in MOLT4 cells, and induced the downstream changes expected from Wee1 loss-including a decrease in phosphorylated cyclin-dependent kinase 1 (pCDK1) (Y15) and an increase in pH 3. […] Degradation of Wee1 by compound 13 was rescued in MOLT4 CRBN^-/- cells. MOLT4 WT and CRBN^-/- cells were plated in a 6-well plate at 2.25 million cells per well in 3 mL media (RPMI+10% FBS+1% Penn/Strep). After treatment with the indicated concentrations of candidate compounds, cells were incubated for 6 hours at 37° C. 5% CO2. To harvest, the cells were washed 1× with cold PBS, then collected by centrifugation. Cell pellets were lysed in RIPA buffer with protease and phosphatase inhibitors (Roche). Lysates were clarified by centrifugation, and protein concentrations were normalized using a BCA assay (Thermo ScientificTM). The samples were diluted with 4×LDS+10% β-mercaptoethanol, and were boiled at 95° C. for 5 minutes. Proteins of interest were then assessed by western blotting. […] The experimental protocol was the same as in Example 28.
Wee1, sequence (P30291 whole entry): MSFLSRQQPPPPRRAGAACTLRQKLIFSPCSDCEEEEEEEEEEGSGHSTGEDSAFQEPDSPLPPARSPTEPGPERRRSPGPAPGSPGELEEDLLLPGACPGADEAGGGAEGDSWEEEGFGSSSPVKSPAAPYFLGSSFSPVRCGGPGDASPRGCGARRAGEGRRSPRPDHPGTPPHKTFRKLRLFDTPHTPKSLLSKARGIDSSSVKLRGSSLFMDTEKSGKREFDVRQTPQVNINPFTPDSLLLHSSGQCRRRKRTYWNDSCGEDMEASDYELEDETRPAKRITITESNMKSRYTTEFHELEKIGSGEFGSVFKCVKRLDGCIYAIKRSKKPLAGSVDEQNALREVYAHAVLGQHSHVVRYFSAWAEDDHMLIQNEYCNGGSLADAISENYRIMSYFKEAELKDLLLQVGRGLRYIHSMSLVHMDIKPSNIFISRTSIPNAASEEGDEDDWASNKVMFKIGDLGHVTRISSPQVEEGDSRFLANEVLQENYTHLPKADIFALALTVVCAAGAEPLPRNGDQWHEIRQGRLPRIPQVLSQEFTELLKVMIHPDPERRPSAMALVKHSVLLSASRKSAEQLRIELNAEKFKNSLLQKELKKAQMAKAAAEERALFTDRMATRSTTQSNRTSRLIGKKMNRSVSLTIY
In the case of `C=CCn1c(=O)c2cnc(Nc3ccc(N4CCN(CCCCCC(=O)N[C@H](C(=O)N5C[C@H](O)C[C@H]5C(=O)N[C@@H](C)c5ccc(-c6scnc6C)cc5)C(C)(C)C)CC4)cc3)nc2n1-c1cccc(C(C)(C)O)n1` [Compound 21, tert-butyl (2S,4R)-1-((S)-2-(6-(4-(4-((2-allyl-1-(6-(2-hydroxypropan-2-yl)pyridin-2-yl)-3-oxo-2,3-dihydro-1H-pyrazolo[3,4-d]pyrimidin-6-yl)amino)phenyl)piperazin-1-yl)hexanamido)-3,3-dimethylbutanoyl)-4-hydroxy-N—((S)-1-(4-(4-methylthiazol-5-yl)phenyl)ethyl)pyrrolidine-2-carboxamide], the Wee1 degradation result is “Degradation of Wee1 was also observed”.

Still in this assay, the particulars now being: MOLT-4, 1 μM, MOLT4 cells, approximated by immunoblot, read-out: Extent of Degradation of Wee1.
With `C=CCn1c(=O)c2cnc(Nc3ccc(N4CCN(C(=O)CCOCCOCCOCCOCCNc5cccc6c5C(=O)N(C5CCC(=O)NC5=O)C6=O)CC4)cc3)nc2n1-c1cccc(C(C)(C)O)n1` (centres unmarked) [Compound 1, 4-((15-(4-(4-((2-allyl-1-(6-(2-hydroxypropan-2-yl)pyridin-2-yl)-3-oxo-2,3-dihydro-1H-pyrazolo[3,4-d]pyrimidin-6-yl)amino)phenyl)piperazin-1-yl)-15-oxo-3,6,9,12-tetraoxapentadecyl)amino)-2-(2,6-dioxopiperidin-3-yl)isoindoline-1,3-dione], the percent Wee1 degradation at 1 µM was below 25%.
Same read-out and setting: with `C=CCn1c(=O)c2cnc(Nc3ccc(N4CCN(C(=O)CCOCCOCCNc5cccc6c5C(=O)N(C5CCC(=O)NC5=O)C6=O)CC4)cc3)nc2n1-c1cccc(C(C)(C)O)n1` (centres unmarked) [Compound 3, 4-((2-(2-(3-(4-(4-((2-allyl-1-(6-(2-hydroxypropan-2-yl)pyridin-2-yl)-3-oxo-2,3-dihydro-1H-pyrazolo[3,4-d]pyrimidin-6-yl)amino)phenyl)piperazin-1-yl)-3-oxopropoxy)ethoxy)ethyl)amino)-2-(2,6-dioxopiperidin-3-yl)isoindoline-1,3-dione] the figure was above 50%; with `C=CCn1c(=O)c2cnc(Nc3ccc(N4CCN(C(=O)CCOCCOCCNc5cccc6c5CN(C5CCC(=O)NC5=O)C6=O)CC4)cc3)nc2n1-c1cccc(C(C)(C)O)n1` (centres unmarked) [Compound 4, 3-(4-((2-(2-(3-(4-(4-((2-allyl-1-(6-(2-hydroxypropan-2-yl)pyridin-2-yl)-3-oxo-2,3-dihydro-1H-pyrazolo[3,4-d]pyrimidin-6-yl)amino)phenyl)piperazin-1-yl)-3-oxopropoxy)ethoxy)ethyl)amino)-1-oxoisoindolin-2-yl)piperidine-2,6-dione], 25 to 50%.
For the compound `C=CCn1c(=O)c2cnc(Nc3ccc(N4CCN(C(=O)CCOCCNc5cccc6c5C(=O)N(C5CCC(=O)NC5=O)C6=O)CC4)cc3)nc2n1-c1cccc(C(C)(C)O)n1` (centres unmarked) [Compound 5, 4-((2-(3-(4-(4-((2-allyl-1-(6-(2-hydroxypropan-2-yl)pyridin-2-yl)-3-oxo-2,3-dihydro-1H-pyrazolo[3,4-d]pyrimidin-6-yl)amino)phenyl)piperazin-1-yl)-3-oxopropoxy)ethyl)amino)-2-(2,6-dioxopiperidin-3-yl)isoindoline-1,3-dione], the percent Wee1 degradation at 1 µM was above 50%.
As to `C=CCn1c(=O)c2cnc(Nc3ccc(N4CCN(C(=O)CCCCCCCCOc5cccc6c5C(=O)N(C5CCC(=O)NC5=O)C6=O)CC4)cc3)nc2n1-c1cccc(C(C)(C)O)n1` (centres unmarked) [Compound 6, 4-((9-(4-(4-((2-allyl-1-(6-(2-hydroxypropan-2-yl)pyridin-2-yl)-3-oxo-2,3-dihydro-1H-pyrazolo[3,4-d]pyrimidin-6-yl)amino)phenyl)piperazin-1-yl)-9-oxononyl)oxy)-2-(2,6-dioxopiperidin-3-yl)isoindoline-1,3-dione], the percent Wee1 degradation at 1 µM was 25 to 50%.
Regarding `C=CCn1c(=O)c2cnc(Nc3ccc(N4CCN(CCCNC(=O)CCOCCOCCOCCOCCNc5cccc6c5C(=O)N(C5CCC(=O)NC5=O)C6=O)CC4)cc3)nc2n1-c1cccc(C(C)(C)O)n1` (centres unmarked) [Compound 8, N-(3-(4-(4-((2-allyl-1-(6-(2-hydroxypropan-2-yl)pyridin-2-yl)-3-oxo-2,3-dihydro-1H-pyrazolo[3,4-d]pyrimidin-6-yl)amino)phenyl)piperazin-1-yl)propyl)-1-((2-(2,6-dioxopiperidin-3-yl)-1,3-dioxoisoindolin-4-yl)amino)-3,6,9,12-tetraoxapentadecan-15-amide], the percent Wee1 degradation at 1 µM is above 50%.
The same measure, in the same setting: the same measure for `C=CCn1c(=O)c2cnc(Nc3ccc(N4CCN(C(=O)CCOCCOCCOCCN5CCN(Cc6ccc(COc7cccc8c7CN([C@H]7CCC(=O)NC7=O)C8=O)cc6)CC5)CC4)cc3)nc2n1-c1cccc(C(C)(C)O)n1` [Compound 9, (S)-3-(4-((4-((4-(2-(2-(2-(3-(4-(4-((2-allyl-1-(6-(2-hydroxypropan-2-yl)pyridin-2-yl)-3-oxo-2,3-dihydro-1H-pyrazolo[3,4-d]pyrimidin-6-yl)amino)phenyl)piperazin-1-yl)-3-oxopropoxy)ethoxy)ethoxy)ethyl)piperazin-1-yl)methyl)benzyl)oxy)-1-oxoisoindolin-2-yl)piperidine-2,6-dione]: above 50%; for `C=CCn1c(=O)c2cnc(Nc3ccc(N4CCN(CCCNC(=O)CCOCCOCCOCCN5CCN(Cc6ccc(COc7cccc8c7CN([C@H]7CCC(=O)NC7=O)C8=O)cc6)CC5)CC4)cc3)nc2n1-c1cccc(C(C)(C)O)n1` [Compound 10, (S)—N-(3-(4-(4-((2-Allyl-1-(6-(2-hydroxypropan-2-yl)pyridin-2-yl)-3-oxo-2,3-dihydro-1H-pyrazolo[3,4-d]pyrimidin-6-yl)amino)phenyl)piperazin-1-yl)propyl)-3-(2-(2-(2-(4-(4-(((2-(2,6-dioxopiperidin-3-yl)-1-oxoisoindolin-4-yl)oxy)methyl)benzyl)piperazin-1-yl)ethoxy)ethoxy)ethoxy)propanamide]: 25 to 50%; for `C=CCn1c(=O)c2cnc(Nc3ccc(N(C)CCCCNc4cccc5c4C(=O)N(C4CCC(=O)NC4=O)C5=O)cc3)nc2n1-c1cccc(C(C)(C)O)n1` (centres unmarked) [Compound 15, 4-((4-((4-((2-Allyl-1-(6-(2-hydroxypropan-2-yl)pyridin-2-yl)-3-oxo-2,3-dihydro-1H-pyrazolo[3,4-d]pyrimidin-6-yl)amino)phenyl)(methyl)amino)butyl)amino)-2-(2,6-dioxopiperidin-3-yl)isoindoline-1,3-dione]: 25 to 50%.
Still for that read-out and setting: with `C=CCn1c(=O)c2cnc(Nc3ccc(N(C)CCCCNc4ccc5c(c4)C(=O)N(C4CCC(=O)NC4=O)C5=O)cc3)nc2n1-c1cccc(C(C)(C)O)n1` (centres unmarked) [Compound 16, 5-((4-((4-((2-Allyl-1-(6-(2-hydroxypropan-2-yl)pyridin-2-yl)-3-oxo-2,3-dihydro-1H-pyrazolo[3,4-d]pyrimidin-6-yl)amino)phenyl)(methyl)amino)butyl)amino)-2-(2,6-dioxopiperidin-3-yl)isoindoline-1,3-dione] the figure was above 50%; with `C=CCn1c(=O)c2cnc(Nc3ccc(N4CCN(CCCNc5cccc6c5C(=O)N(C5CCC(=O)NC5=O)C6=O)CC4)cc3)nc2n1-c1cccc(OC)n1` (centres unmarked) [Compound 17, 4-((3-(4-(4-((2-Allyl-1-(6-methoxypyridin-2-yl)-3-oxo-2,3-dihydro-1H-pyrazolo[3,4-d]pyrimidin-6-yl)amino)phenyl)piperazin-1-yl)propyl)amino)-2-(2,6-dioxopiperidin-3-yl)isoindoline-1,3-dione], above 50%.
On to `C=CCn1c(=O)c2cnc(Nc3ccc(N4CCN(CCCNc5cccc6c5C(=O)N(C5CCC(=O)NC5=O)C6=O)CC4)cc3)nc2n1-c1cccc(C(F)(F)F)n1` (centres unmarked) [Compound 18, 4-((3-(4-(4-((2-Allyl-3-oxo-1-(6-(trifluoromethyl)pyridin-2-yl)-2,3-dihydro-1H-pyrazolo[3,4-d]pyrimidin-6-yl)amino)phenyl)piperazin-1-yl)propyl)amino)-2-(2,6-dioxopiperidin-3-yl)isoindoline-1,3-dione], for which the percent Wee1 degradation at 1 µM is above 50%.
For `C=CCn1c(=O)c2cnc(Nc3ccc(N4CCN(CCCCCC(=O)N[C@H](C(=O)N5C[C@H](O)C[C@H]5C(=O)N[C@@H](C)c5ccc(-c6scnc6C)cc5)C(C)(C)C)CC4)cc3)nc2n1-c1cccc(C(C)(C)O)n1` [Compound 21, tert-butyl (2S,4R)-1-((S)-2-(6-(4-(4-((2-allyl-1-(6-(2-hydroxypropan-2-yl)pyridin-2-yl)-3-oxo-2,3-dihydro-1H-pyrazolo[3,4-d]pyrimidin-6-yl)amino)phenyl)piperazin-1-yl)hexanamido)-3,3-dimethylbutanoyl)-4-hydroxy-N—((S)-1-(4-(4-methylthiazol-5-yl)phenyl)ethyl)pyrrolidine-2-carboxamide], the percent Wee1 degradation at 1 µM was below 25%.
